The results in this text go back to patent US12441725B2, “ISO-citrate dehydrogenase (IDH) inhibitor” (ZHEJIANG METON PHARMACEUTICAL CO., LTD, priority 2019, dated 2025).

In assay [1] the target is T1, IDH (endogenous IDH1 R132C) in HT1080 cell (Homo sapiens, UniProt O75874, R132C).
T1 construct: which harbor endogenous heterozygous IDH1 R132C and R132H mutation respectively and accumulate D-2-HG
In words: Cell-based assay for IDH inhibition (decrease of D-2-HG) in HT1080 cells. Conditions: human fibrosarcoma cell line HT1080, 16 hours treatment, D-2-HG by LC-MS, in triplet. Put shortly: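 HT1080 cells with endogenous IDH1 R132C, grown in DMEM/10% FBS, treated with compound at several concentrations for 16 h. Metabolites extracted in cold 40% methanol/40% acetonitrile and D-2-HG measured by HILIC LC-MS/MS, normalized to glutamate. IC50 from D-2-HG relative to DMSO controls; run in triplicate.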

A further assay concerns the target T2, IDH1 R132H (Homo sapiens, UniProt O75874, R132H).
T2 construct: 6xHis
In words: Biochemical assay for IDH inhibition (NADPH fluorescence), mutant IDH1 R132H. The note with it: 50 nM IDH1-R132H, 1 hour pre-incubation, in triplet. In short, it runs like this:
(§1)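 Mutant enzyme (25 nM R132C or 50 nM R132H) was preincubated 1 h at room temperature with compound in pH 7.5 Tris buffer containing 1.33 mM α-KG, and the reaction was then started with NADPH (80 μM solution). NADPH consumption was followed by fluorescence (Ex 340/Em 460 nm) for 15 min. IC50 was derived from background-corrected linear rates relative to vehicle, run in triplicate.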

The next assay concerns the target T3, IDH1 R132C (Homo sapiens, UniProt O75874, R132C).
T3 construct: 6xHis
The assay can be described thus: Biochemical assay for IDH inhibition (NADPH fluorescence), mutant IDH1 R132C. The note with it: 25 nM IDH1-R132C, 1 hour pre-incubation, in triplet. Put shortly: as §1

Each structure is given as a SMILES string.

T1 sequence (O75874 2-414 R132C): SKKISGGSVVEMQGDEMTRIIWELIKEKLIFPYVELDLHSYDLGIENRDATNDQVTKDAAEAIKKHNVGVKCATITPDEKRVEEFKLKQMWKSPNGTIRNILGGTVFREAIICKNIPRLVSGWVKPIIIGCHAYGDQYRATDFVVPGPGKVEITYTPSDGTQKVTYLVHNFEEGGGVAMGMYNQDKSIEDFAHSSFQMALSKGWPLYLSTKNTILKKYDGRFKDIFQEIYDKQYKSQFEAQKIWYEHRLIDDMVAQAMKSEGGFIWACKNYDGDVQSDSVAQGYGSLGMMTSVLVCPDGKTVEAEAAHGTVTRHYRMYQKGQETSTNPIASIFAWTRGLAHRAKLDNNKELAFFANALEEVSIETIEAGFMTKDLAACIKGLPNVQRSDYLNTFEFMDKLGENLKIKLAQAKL
T3 sequence (O75874 whole entry R132C): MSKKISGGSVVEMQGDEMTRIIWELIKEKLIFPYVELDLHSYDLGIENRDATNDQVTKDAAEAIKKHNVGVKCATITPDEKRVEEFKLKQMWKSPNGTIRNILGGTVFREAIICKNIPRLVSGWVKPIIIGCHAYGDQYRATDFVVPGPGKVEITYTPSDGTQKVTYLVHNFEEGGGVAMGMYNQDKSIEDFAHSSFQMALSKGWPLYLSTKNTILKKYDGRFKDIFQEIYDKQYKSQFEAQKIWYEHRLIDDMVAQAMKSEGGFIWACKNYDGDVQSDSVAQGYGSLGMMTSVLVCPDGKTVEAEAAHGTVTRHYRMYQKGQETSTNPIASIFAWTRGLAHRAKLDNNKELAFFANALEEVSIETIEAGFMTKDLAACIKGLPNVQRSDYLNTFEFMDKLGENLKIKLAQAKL
T2 sequence (O75874 whole entry R132H): as the sequence (O75874 whole entry R132C) above, with C132H counted along it

Take `CCN1Cc2c(ccnc2N[C@@H](C)c2ccc(-c3ccnc4ccccc34)c(F)c2)C1=O` [Compound 70, (S)-2-ethyl-4-((1-(3-fluoro-4-(quinolin-4-yl)phenyl)ethyl)amino)-2,3-dihydro-1H-pyrrolo[3,4-c]pyridin-1-one]: the IC50 (in assay [1]; on IDH1 R132H; at IDH1 R132C) was more than 1000 nM throughout.

With `CCN1Cc2c(ccnc2N[C@@H](C)c2ccc(-c3ccnc(C(C)(C)C)c3)c(F)c2)C1=O` [Compound 71, (S)-4-((1-(4-(2-(tert-butyl)pyridin-4-yl)-3-fluorophenyl)ethyl)amino)-2-ethyl-2,3-dihydro-1H-pyrrolo[3,4-c]pyridin-1-one], the figures for the concentration for half-maximal inhibition (IC50) (in assay [1]; on IDH1 R132H; on IDH1 R132C) were 100 to 500 nM, less than 100 nM and less than 100 nM, respectively.

Consider `CCN1Cc2c(ccnc2N[C@@H](C)c2ccc(-c3ccc4c(ccn4C)c3)c(F)c2)C1=O` [Compound 72, (S)-2-ethyl-4-((1-(3-fluoro-4-(1-methyl-1H-indol-5-yl)phenyl)ethyl)amino)-2,3-dihydro-1H-pyrrolo[3,4-c]pyridin-1-one], for which the IC50 in assay [1] is more than 1000 nM; at IDH1 R132H, 100 to 500 nM; on IDH1 R132C, 500 to 1000 nM.

For `CCN1Cc2c(ccnc2N[C@@H](C)c2ccc(-c3ccc(C)cc3)c(F)c2)C1=O` [Compound 73, (S)-2-ethyl-4-((1-(2-fluoro-4′-methyl-[1,1′-biphenyl]-4-yl)ethyl)amino)-2,3-dihydro-1H-pyrrolo[3,4-c]pyridin-1-one], the IC50 is more than 1000 nM in assay [1], 100 to 500 nM at IDH1 R132H and more than 1000 nM on IDH1 R132C.

As to `CCN1Cc2c(ccnc2N[C@@H](C)c2ccc(-c3ccc(F)cc3)c(F)c2)C1=O` [Compound 74, (S)-4-((1-(2,4′-difluoro-[1,1′-biphenyl]-4-yl)ethyl)amino)-2-ethyl-2,3-dihydro-1H-pyrrolo[3,4-c]pyridin-1-one], the IC50 (in assay [1]; on IDH1 R132H; at IDH1 R132C) was more than 1000 nM throughout.

`CCN1Cc2c(ccnc2N[C@@H](C)c2ccc(-c3ccc(C(F)(F)F)nc3)c(F)c2)C1=O` [Compound 75, (S)-2-ethyl-4-((1-(3-fluoro-4-(6-(trifluoromethyl)pyridin-3-yl)phenyl)ethyl)amino)-2,3-dihydro-1H-pyrrolo[3,4-c]pyridin-1-one]: the IC50 (in assay [1]; at IDH1 R132H; at IDH1 R132C) was more than 1000 nM each time.

`CCN1Cc2c(ccnc2N[C@@H](C)c2ccc(-c3cc(C)nc(C)c3)c(F)c2)C1=O` [Compound 76, (S)-4-((1-(4-(2,6-dimethylpyridin-4-yl)-3-fluorophenyl)ethyl)amino)-2-ethyl-2,3-dihydro-1H-pyrrolo[3,4-c]pyridin-1-one]: the half-inhibitory concentration (IC50) (in assay [1]; at IDH1 R132H; at IDH1 R132C) was more than 1000 nM throughout.

As to `CCN1Cc2c(ccnc2N[C@@H](C)c2ccc(-c3ccnc(C4CCC4)c3)c(F)c2)C1=O` [Compound 77, (S)-4-((1-(4-(2-cyclobutylpyridin-4-yl)-3-fluorophenyl)ethyl)amino)-2-ethyl-2,3-dihydro-1H-pyrrolo[3,4-c]pyridin-1-one], the IC50 in assay [1] was 500 to 1000 nM; on IDH1 R132H, 100 to 500 nM; on IDH1 R132C, 100 to 500 nM.

In the case of `CCN1Cc2c(ccnc2N[C@@H](C)c2ccc(-c3ccnc(C4(O)CCC4)c3)c(F)c2)C1=O` [Compound 78, (S)-2-ethyl-4-((1-(3-fluoro-4-(2-(1-hydroxycyclobutyl)pyridin-4-yl)phenyl)ethyl)amino)-2,3-dihydro-1H-pyrrolo[3,4-c]pyridin-1-one], the 50% inhibitory concentration (IC50) in assay [1] is 500 to 1000 nM; on IDH1 R132H, more than 1000 nM; at IDH1 R132C, more than 1000 nM.

Turning to `CCN1Cc2c(ccnc2N[C@@H](C)c2ccc(-c3ccnc(CC4CC4)c3)c(F)c2)C1=O` [Compound 79, (S)-4-((1-(4-(2-(cyclopropylmethyl)pyridin-4-yl)-3-fluorophenyl)ethyl)amino)-2-ethyl-2,3-dihydro-1H-pyrrolo[3,4-c]pyridin-1-one], the results for the IC50 (in assay [1]; at IDH1 R132H; on IDH1 R132C) were 500 to 1000 nM, 100 to 500 nM and 100 to 500 nM, respectively.

As to `CCN1Cc2c(ccnc2N[C@@H](C)c2ccc(-c3ccccc3)c(F)c2)C1=O` [Compound 80, (S)-2-ethyl-4-((1-(2-fluoro-[1,1′-biphenyl]-4-yl)ethyl)amino)-2,3-dihydro-1H-pyrrolo[3,4-c]pyridin-1-one], the IC50 (in assay [1]; on IDH1 R132H; on IDH1 R132C) was more than 1000 nM in each case.

Regarding `CCN1Cc2c(ccnc2N[C@@H](C)c2ccc(-c3ccc(F)c(C)c3)c(F)c2)C1=O` [Compound 81, (S)-4-((1-(2,4′-difluoro-3′-methyl-[1,1′-biphenyl]-4-yl)ethyl)amino)-2-ethyl-2,3-dihydro-1H-pyrrolo[3,4-c]pyridin-1-one], the IC50 in assay [1] was more than 1000 nM; at IDH1 R132H, 100 to 500 nM; on IDH1 R132C it was 500 to 1000 nM.

Consider `CCN1Cc2c(ccnc2N[C@@H](C)c2ccc(-c3ccc(C)cn3)c(F)c2)C1=O` [Compound 82, (S)-2-ethyl-4-((1-(3-fluoro-4-(5-methylpyridin-2-yl)phenyl)ethyl)amino)-2,3-dihydro-1H-pyrrolo[3,4-c]pyridin-1-one], for which the concentration for half-maximal inhibition (IC50) (in assay [1]; on IDH1 R132H; at IDH1 R132C) was more than 1000 nM in each case.

Regarding `CCN1Cc2c(ccnc2N[C@@H](C)c2ccc(-c3ccn(C)n3)c(F)c2)C1=O` [Compound 83, (S)-2-ethyl-4-((1-(3-fluoro-4-(1-methyl-1H-pyrazol-3-yl)phenyl)ethyl)amino)-2,3-dihydro-1H-pyrrolo[3,4-c]pyridin-1-one], the IC50 (in assay [1]; at IDH1 R132H; at IDH1 R132C) was more than 1000 nM in each case.

`CCN1Cc2c(ccnc2N[C@@H](C)c2ccc(-c3ccnc(C(C)(C)C#N)c3)c(F)c2)C1=O` [Compound 84, (S)-2-(4-(4-(1-((2-ethyl-1-oxo-2,3-dihydro-1H-pyrrolo[3,4-c]pyridin-4-yl)amino)ethyl)-2-fluorophenyl)pyridin-2-yl)-2-methylpropanenitrile]: the figures for the IC50 (in assay [1]; at IDH1 R132H; at IDH1 R132C) were more than 1000 nM, 100 to 500 nM and more than 1000 nM, respectively.

`CCN1Cc2c(ccnc2N[C@@H](C)c2ccc(-c3ccnc(C(O)C4CC4)c3)c(F)c2)C1=O` (stereo partly drawn) [Compound 85, 4-(((1S)-1-(4-(2-(cyclopropyl(hydroxy)methyl)pyridin-4-yl)-3-fluorophenyl)ethyl)amino)-2-ethyl-2,3-dihydro-1H-pyrrolo[3,4-c]pyridin-1-one]: the half-inhibitory concentration (IC50) (in assay [1]; on IDH1 R132H; on IDH1 R132C) was more than 1000 nM in each case.

As for `CCN1Cc2c(ccnc2N[C@@H](C)c2ccc(-c3ccnc(C(=O)C4CC4)c3)c(F)c2)C1=O` [Compound 86, (S)-4-((1-(4-(2-(cyclopropanecarbonyl)pyridin-4-yl)-3-fluorophenyl)ethyl)amino)-2-ethyl-2,3-dihydro-1H-pyrrolo[3,4-c]pyridin-1-one], the IC50 (in assay [1]; at IDH1 R132H; at IDH1 R132C) was more than 1000 nM throughout.

As for `CCN1Cc2c(ccnc2N[C@@H](C)c2cc(F)c(-c3ccnc(C(C)(C)C)c3)cc2F)C1=O` [Compound 87, (S)-4-((1-(4-(2-(tert-butyl)pyridin-4-yl)-2,5-difluorophenyl)ethyl)amino)-2-ethyl-2,3-dihydro-1H-pyrrolo[3,4-c]pyridin-1-one], the IC50 (in assay [1]; on IDH1 R132H; at IDH1 R132C) was less than 100 nM in each case.

Consider `CCN1Cc2c(ccnc2N[C@@H](C)c2cc(F)c(-c3ccnc(C(F)(F)F)c3)cc2F)C1=O` [Compound 88, (S)-4-((1-(2,5-difluoro-4-(2-(trifluoromethyl)pyridin-4-yl)phenyl)ethyl)amino)-2-ethyl-2,3-dihydro-1H-pyrrolo[3,4-c]pyridin-1-one], for which the half-maximal inhibitory concentration (IC50) in assay [1] is more than 1000 nM; at IDH1 R132H, 500 to 1000 nM; on IDH1 R132C it was more than 1000 nM.

With `CCN1Cc2c(ccnc2N[C@@H](C)c2cc(F)c(-c3ccnc(C4CCC4)c3)cc2F)C1=O` [Compound 89, (S)-4-((1-(4-(2-cyclobutylpyridin-4-yl)-2,5-difluorophenyl)ethyl)amino)-2-ethyl-2,3-dihydro-1H-pyrrolo[3,4-c]pyridin-1-one], the values for the IC50 (in assay [1]; at IDH1 R132H; at IDH1 R132C) were 100 to 500 nM, less than 100 nM and 100 to 500 nM, respectively.

Take `CCN1Cc2c(ccnc2N[C@@H](C)c2cc(F)c(-c3ccnc(C4CC4)c3)cc2F)C1=O` [Compound 90, (S)-4-((1-(4-(2-cyclopropylpyridin-4-yl)-2,5-difluorophenyl)ethyl)amino)-2-ethyl-2,3-dihydro-1H-pyrrolo[3,4-c]pyridin-1-one]: the IC50 in assay [1] is 500 to 1000 nM; at IDH1 R132H, 100 to 500 nM; at IDH1 R132C, more than 1000 nM.

On to `CCN1Cc2c(ccnc2N[C@@H](C)c2cc(F)c(-c3ccnc(CC4CC4)c3)cc2F)C1=O` [Compound 91, (S)-4-((1-(4-(2-(cyclopropylmethyl)pyridin-4-yl)-2,5-difluorophenyl)ethyl)amino)-2-ethyl-2,3-dihydro-1H-pyrrolo[3,4-c]pyridin-1-one], for which the results for the IC50 (in assay [1]; at IDH1 R132H; at IDH1 R132C) were 100 to 500 nM, 100 to 500 nM and 500 to 1000 nM, respectively.

One may read the IC50 as the point on the concentration scale where inhibition reaches its midpoint.
